Laboratory results reported in patent US12521406B2, “Use of compounds in the treatment of fungal infections” (Basilea Pharmaceutica International AG, Allschwil, priority 2020, dated 2026).

Key:
[1] = target: T1, phosphatidylinositol glycan anchor biosynthesis class W (PIGW) protein (Homo sapiens, UniProt Q7Z7B1); test: Inhibition of PIGW, closest mammalian ortholog of GWT1; format: biochemical; conditions: closest mammalian ortholog of the fungal GWT1 protein
T1 sequence (Q7Z7B1 1-504): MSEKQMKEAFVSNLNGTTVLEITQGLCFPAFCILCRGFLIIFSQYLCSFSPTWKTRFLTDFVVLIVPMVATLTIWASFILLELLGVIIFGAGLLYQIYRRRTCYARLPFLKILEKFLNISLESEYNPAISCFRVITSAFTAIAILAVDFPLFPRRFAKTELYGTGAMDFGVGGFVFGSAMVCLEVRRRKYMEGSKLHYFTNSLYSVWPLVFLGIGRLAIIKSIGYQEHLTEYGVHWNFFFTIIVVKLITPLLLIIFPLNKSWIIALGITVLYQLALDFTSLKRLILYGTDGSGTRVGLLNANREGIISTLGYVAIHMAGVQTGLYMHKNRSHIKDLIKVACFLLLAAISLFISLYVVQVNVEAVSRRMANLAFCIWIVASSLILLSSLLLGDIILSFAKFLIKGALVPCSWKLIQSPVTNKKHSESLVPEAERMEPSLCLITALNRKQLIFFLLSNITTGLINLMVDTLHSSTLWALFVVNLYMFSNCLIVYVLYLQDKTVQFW
Source text: (§1) Compound 1A inhibits the fungal glycosylphosphatidylinositol (GPI)-anchored wall transfer protein 1 (GWT1) enzyme, a highly conserved inositol acylase that catalyzes an early step in the GPI-anchored biosynthesis pathway. This inhibition has pleiotropic effects on the fungal cell due to inhibition of cell wall mannoprotein localization, which comprises cell wall integrity, biofilm formation, germ tube formation, and fungal growth.

[2] = tested on: Aspergillus spp. clinical isolates; test: 2017 and 2018 surveillance of antifungal activity against Aspergillus clinical isolates (MEC); format: cell-based; conditions: Aspergillus isolates likely to be found in the clinical patient population
Protocol: The MEC in […] (MEC90) for Aspergillus isolates likely to be found in the clinical patient population under study is 0.03 μg/mL.

[3] = tested on: Aspergillus fumigatus, Scedosporium prolificans, and Fusarium solani; test: 5-fluorouracil immunosuppressed mice with IMIs; format: in vivo
[4] = tested on: Candida spp., Cryptococcus spp., Aspergillus spp., Scedosporium spp., Fusarium spp., and some Mucorales fungi; test: In vitro antifungal activity; format: cell-based
Source text: These rare mold and rare yeast species generally pose no threat to healthy subjects, but can lead to invasive mold infections in immunocompromised individuals.

[5] = target: fungal glycosylphosphatidylinositol (GPI)-anchored wall transfer protein 1 (GWT1) enzyme (Saccharomyces cerevisiae, UniProt P47026); test: Inhibition of fungal GWT1 enzyme; format: biochemical
Chain of fungal glycosylphosphatidylinositol (GPI)-anchored wall transfer protein 1 (GWT1) enzyme (P47026 whole entry): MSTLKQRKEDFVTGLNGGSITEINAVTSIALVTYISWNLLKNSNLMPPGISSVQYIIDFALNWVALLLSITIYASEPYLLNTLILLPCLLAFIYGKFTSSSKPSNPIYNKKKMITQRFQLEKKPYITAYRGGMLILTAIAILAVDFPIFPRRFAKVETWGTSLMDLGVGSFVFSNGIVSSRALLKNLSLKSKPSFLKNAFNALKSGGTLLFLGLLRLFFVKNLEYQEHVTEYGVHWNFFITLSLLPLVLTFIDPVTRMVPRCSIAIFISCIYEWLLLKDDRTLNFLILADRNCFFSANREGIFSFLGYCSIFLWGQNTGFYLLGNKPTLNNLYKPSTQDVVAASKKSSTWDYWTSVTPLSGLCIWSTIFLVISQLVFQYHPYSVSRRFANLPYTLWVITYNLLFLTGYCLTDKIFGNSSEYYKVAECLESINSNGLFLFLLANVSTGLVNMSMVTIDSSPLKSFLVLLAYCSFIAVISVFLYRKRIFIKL
Source text: as §1

[6] = tested on: Aspergillus spp. or rare molds; test: Phase 2 open-label study in patients with invasive mold infections; format: in vivo, human; conditions: 12 patients treated
Source text: This is a Phase 2, multicenter, open-label, non-comparative study to evaluate the safety and efficacy of compound 1 for the treatment of IMIs caused by Aspergillus spp. or rare molds (e.g., Scedosporium spp., Fusarium spp., and Mucorales fungi). Patients 18 years of age or older will undergo Screening procedures for up to 5 days, following which eligible patients will participate in the study drug Treatment Period for up to 6 weeks, with a Follow-Up Visit 4 weeks after EOST, and a Follow-Up Phone Call 12 weeks after Day 1 (Day 84). The total duration of a patient's participation in the study will be approximately 12 weeks, inclusive of the follow-up telephone call required on Day 84. Patients who require treatment for longer than 6 weeks can be switched to other licensed antifungal therapy (OLAT) at the discretion of the Investigator and in consultation with the Medical Monitor if the situation allows.
This study will consist of a single treatment arm consisting of a loading dose of 1000 mg compound 1, administered over 3 hours by IV infusion twice daily (BID) within the first 24 hours after initiation of the first infusion. On Days 2 and 3, 600 mg compound 1 will be administered over 3 hours by IV infusion once daily (QD). […]

[7] = Phase 1, healthy volunteers
Source text: The duration of the multiple-dose regimens in these studies was 7, 14, and 42 days (6 weeks).
One dose regimen of compound 1 will be evaluated in this study.

[8] = tested on: Fusarium, Aspergillus/Lichtheimia, C. albicans, L. prolificans infection; conditions: human, in vivo
Source text: Population: A total of 15 patients with life-threatening/serious fungal infections received treatment, with slight modifications. […] Of these patients, 12 have an invasive Fusarium infection, while the remaining patients have Aspergillus/Lichtheimia infection, C. albicans infection, and L. prolificans infection. […] These patients show a broad range of fungal infection sites with sinus, spine, ankle, skin, eye, brain, and disseminated infections all observed. Many of these patients also have an underlying disease/condition, such as AML/ALL/MDS, SC/solid organ transplantation, or trauma.
Updates to Dosing Regimen: Seven patients received IV dosing of compound 1, and six of these seven switched to oral doses. Eight patients received oral doses only. […] Additionally, eight patients received oral compound 1 at 400 mg BID rather than 800 mg QD.

A. fumigatus = test: PK-PD study in immunocompromised mice infected with 6 strains of A. fumigatus; format: in vivo; conditions: fungal burden (CEs by qPCR) in lung homogenates at 96 hours; 6 A. fumigatus strains
Protocol: Pharmacokinetic-pharmacodynamic (PK-PD) studies in immunosuppressed mice with invasive infections caused by A. fumigatus have shown that the area under the concentration-time curve (AUC) divided by the minimal effective concentration (MEC) ratio is the driver of efficacy.
In a pharmacokinetic/pharmacodynamic (PK-PD) study, immunocompromised mice were infected with 6 strains of A. fumigatus, inclusive of wild type, azole-resistant, and echinocandin-resistant strains. Groups of animals were dosed with compound 1 at different dose fractionations. […] The stasis and 1-logarithm drop endpoints were defined as the quantity of A. fumigatus in CEs just prior to compound 1 administration compared to CEs at the endpoint of assessment at 96 hours.

[9] = in vivo

With `Nc1ncccc1-c1cc(Cc2ccc(COc3ccccn3)cc2)no1` [Compound 1A] the “inhibition of PIGW protein” value [1] was “does not inhibit”, the MEC90 [2] was 0.03 µg/mL and the “pulmonary fungal colony counts” value [3] was “reduced pulmonary fungal colony counts”. The survival rates [3] was “statistically significantly improved survival rates”, the “in vitro antifungal activity” value ([4]; including azole- and echinocandin-resistant strains) was “broad in vitro antifungal activity” and the “antifungal activity against clinical isolates of rare mold and rare yeast infections” value ([4]; rare molds and rare yeasts listed) was “antifungal activity against a broad range of clinical isolates”. The “inhibition of fungal GWT1 enzyme” value [5] was “inhibits”.

With `Nc1c(-c2cc(Cc3ccc(COc4ccccn4)cc3)no2)ccc[n+]1COP(=O)([O-])O` [compound 1] the “patients with good response (at Day 42 or earlier)” value [6] was 8 patients, the “safety and tolerability of the dose regimen” value [7] was “safe and well tolerated” and the “tolerability over extended treatment durations” value [8] was “generally well tolerated”. The “median total drug AUC/MEC which achieved 1-logarithm kill endpoint” value (A. fumigatus) was 5258.2, the “median total drug AUC/MEC which achieved stasis endpoint” value (A. fumigatus) was 2801.6 and the “conversion of prodrug to active moiety compound 1A” value [9] was “rapidly converted in vivo by phosphatases”. For the same compound, the tissue distribution [9] was “wide-tissue distribution, including the eye and central nervous system”.
